Experimental data reported in patent publication US6855513B1 (priority 1999, dated 2005).

Tests used:
[1] = tested on: qsc103; test: Acyl-HSL induction of β-galactosidase in qsc103 mutant; format: cell-based, Pseudomonas aeruginosa; settings: qsc103, Class I; 3OC12-HSL 2 μM, C4-HSL 5 μM
[2] = tested on: qtc136; test: Acyl-HSL induction of β-galactosidase in qtc136 mutant; format: cell-based, Pseudomonas aeruginosa; settings: qtc136, Class IV; 3OC12-HSL 2 μM, C4-HSL 5 μM
[3] = tested on: qsc102; test: Acyl-HSL induction of β-galactosidase in qsc102 mutant; format: cell-based, Pseudomonas aeruginosa; settings: for Signal response (β-galactosidase activity with signal(s) divided by activity without added signals), maximum: qsc102, Class I, 3OC12-HSL 2 μM, C4-HSL 5 μM
Method: (§1) E. coli and P. aeruginosa were routinely grown in Luria-Bertani (LB) broth or LB agar (Sambrook, et al. (1989) Molecular Cloning: a Laboratory Manual. (Cold Spring Harbor Laboratory, Cold Spring Harbor, N.Y.)), supplemented with antimicrobial agents when necessary. The antimicrobial agents were used at the following concentrations: HgCl2, 15 μg/ml in agar and 7.5 μg/ml in broth; nalidixic acid 20 μg/ml; carbenicillin, 300 μg/ml; tetracycline, 50 μg/ml for P. aeruginosa and 20 μg/ml for E. coli; and gentamicin, 100 μg/ml for P. aeruginosa and 15 μg/ml for E. coli. Synthetic acyl-HSL concentrations were 2 μM for 3OC12-HSL and 5 μM for C4-HSL, and 5-bromo4-chloro-3-indolyl-β-D-galactopyranoside (X-Gal) was used at 50 μg/ml.
Patterns of Acyl-HSL Induction of β-galactosidase Activity in qsc Mutants. The pattern of β-galactosidase expression was examined in response to acyl-HSLs in each of 47 qsc mutants identified in the initial screen. Each mutant was grown in 1 ml of MOPS (50 mM, pH 7.0) buffered LB broth containing one, the other, both, or neither acyl-HSL signal in an 18 mm culture tube at 37° C. with shaking. A mid-logarithmic phase culture was used as an inoculum and initial optical densities (ODs) at 600 nm were 0.1. Growth was monitored as OD at 600 nm and β-galactosidase activity was measured in 0.1 ml samples taken at 0, 2, 5, and 9 hours after inoculation.
One assay used the P. aeruginosa strain QSC102 (Table 3), which responds to the presence of exogenous 3-oxo-C12-HSL by inducing β-galactosidase activity up to 400-fold (Example 1). Cells were grown in the presence of a minimal concentration of 3-oxo-C12-HSL and in the presence and absence of the test compound. If the test compound interferes with signal reception, β-galactosidase activity is reduced. Interference can be a result of any of several mechanisms. The simplest is, if the test compound prevents the 3oxo-C12-HSL from binding to LasR. Alternatively, the test compound may prevent LasR from binding to DNA or interacting productively with RNA polymerase.

[4] = tested on: qsc104 (Polyamine binding protein); test: Acyl-HSL induction of β-galactosidase in qsc104 mutant; format: cell-based, Pseudomonas aeruginosa; settings: qsc104, Class I; 3OC12-HSL 2 μM, C4-HSL 5 μM
[5] = tested on: qsc138; test: Acyl-HSL induction of β-galactosidase in qsc138 mutant; format: cell-based, Pseudomonas aeruginosa; settings: qsc138, Class IV; 3OC12-HSL 2 μM, C4-HSL 5 μM
[6] = tested on: P. aeruginosa lasI mutant biofilm; settings: flow-through chamber; resistance to 0.2% sodium dodecyl sulfate; cited from earlier work
[7] = tested on: qsc106A&B; test: Acyl-HSL induction of β-galactosidase in qsc106A&B mutants; format: cell-based, Pseudomonas aeruginosa; settings: Class I, 3OC12-HSL 2 μM, C4-HSL 5 μM
[8] = tested on: qsc127; test: Acyl-HSL induction of β-galactosidase in qsc127 mutant; format: cell-based, Pseudomonas aeruginosa; settings: qsc127, Class III; 3OC12-HSL 2 μM, C4-HSL 5 μM
[9] = tested on: qsc112A&B (Aculeacin A acylase); test: Acyl-HSL induction of β-galactosidase in qsc112A&B mutants; format: cell-based, Pseudomonas aeruginosa; settings: Class II, 3OC12-HSL 2 μM, C4-HSL 5 μM
[10] = tested on: qsc137 (Asparagine synthetase); test: Acyl-HSL induction of β-galactosidase in qsc137 mutant; format: cell-based, Pseudomonas aeruginosa; settings: qsc137, Class IV; 3OC12-HSL 2 μM, C4-HSL 5 μM
[11] = tested on: qsc116; test: Acyl-HSL induction of β-galactosidase in qsc116 mutant; format: cell-based, Pseudomonas aeruginosa; settings: qsc116, Class II; 3OC12-HSL 2 μM, C4-HSL 5 μM
[12] = tested on: qsc114; test: Acyl-HSL induction of β-galactosidase in qsc114 mutant; format: cell-based, Pseudomonas aeruginosa; settings: qsc114, Class II; 3OC12-HSL 2 μM, C4-HSL 5 μM
[13] = tested on: qsc119 (RhlB); test: Acyl-HSL induction of β-galactosidase in qsc119 mutant; format: cell-based, Pseudomonas aeruginosa; settings: qsc119, Class III; 3OC12-HSL 2 μM, C4-HSL 5 μM
[14] = tested on: lasB-lacZ chromosomal fusion; test: Acyl-HSL response of lasB-lacZ chromosomal fusion in P. aeruginosa PAO-MW1; format: cell-based, Pseudomonas aeruginosa; settings: late response
Method: as §1
A mutant strain, P. aeruginosa PAO-MW 10, which contains a lacZ reporter in the chromosomal lasB gene was constructed by introduction of pMW300 into PAO-MW1 by triparental mating as described above. Exconjugants resistant to gentamicin and sensitive to chloramphenicol were selected as potential recombinants.
Patterns of Acyl-HSL Induction of β-galactosidase Activity in qsc Mutants. The pattern of β-galactosidase expression was examined in response to acyl-HSLs in each of 47 qsc mutants identified in the initial screen. […] Growth was monitored as OD at 600 nm and β-galactosidase activity was measured in 0.1 ml samples taken at 0, 2, 5, and 9 hours after inoculation.

[15] = tested on: qsc135 (Cytochrome C precursor); test: Acyl-HSL induction of β-galactosidase in qsc135 mutant; format: cell-based, Pseudomonas aeruginosa; settings: qsc135, Class IV; 3OC12-HSL 2 μM, C4-HSL 5 μM
[16] = tested on: qsc125 (Zeaxanthin synthesis); test: Acyl-HSL induction of β-galactosidase in qsc125 mutant; format: cell-based, Pseudomonas aeruginosa; settings: qsc125, Class III; 3OC12-HSL 2 μM, C4-HSL 5 μM

Row | Structure (SMILES) | Signal response (β-galactosidase activity with signal(s) divided by activity without added signals), maximum [1] | Signal response (β-galactosidase activity with signal(s) divided by activity without added signals), maximum [2] | Signal response (β-galactosidase activity with signal(s) divided by activity without added signals), maximum [3] | Induction of β-galactosidase activity ([3]; strain QSC102, exogenous signal) | Signal response (β-galactosidase activity with signal(s) divided by activity without added signals), maximum [4] | Signal response (β-galactosidase activity with signal(s) divided by activity without added signals), maximum [5] | Biofilm phenotype after adding signal back to lasI mutant cells [6] | Signal response (β-galactosidase activity with signal(s) divided by activity without added signals), maximum [7] | Signal response (β-galactosidase activity with signal(s) divided by activity without added signals), maximum [8] | Signal response (β-galactosidase activity with signal(s) divided by activity without added signals), maximum [9] | Signal response (β-galactosidase activity with signal(s) divided by activity without added signals), maximum [10] | Signal response (β-galactosidase activity with signal(s) divided by activity without added signals), maximum [11] | Signal response (β-galactosidase activity with signal(s) divided by activity without added signals), maximum [12] | Signal response (β-galactosidase activity with signal(s) divided by activity without added signals), maximum [13] | Stimulation of lasB-lacZ fusion over background [14] [fold] | Signal response (β-galactosidase activity with signal(s) divided by activity without added signals), maximum [15] | Signal response (β-galactosidase activity with signal(s) divided by activity without added signals), maximum [16]
1 | CCCCCCCCCC(=O)CC(=O)N[C@H]1CCOC1=O [3OC12-HSL, N-(3-oxododecanoyl) homoserine lactone] | 85 | 7 | 350 | up to 400 fold | 7 | 3 | wild type phenotype was restored | 9 | 5 | 15 | 1 | 5 | 9 | 9 | 3 | 3 | 20
2 | CCCC(=O)N[C@H]1CCOC1=O [C4-HSL, butanoyl-HSL] | 1 | 3 | 1 |  | 2 | 5 |  | 1 | 2 | 1 | 1 | 1 | 1 | 7 |  | 1 | 65
